# Data from US9622995B2, “Treatment of disorders associated with G protein-coupled receptor 35 (GPR35)” (TEMPLE UNIVERSITY—OF THE COMMONWEALTH SYSTEM OF HIGHER …, priority 2009, dated 2017).
# Legend:
# [1] = biological target: T1, vasopressin receptor (V2R) (Homo sapiens, UniProt P30518); assay: β-arrestin2-GFP redistribution in U2OS cells overexpressing V2R (specificity control); type: cell-based; details: U2OS cells with β-arrestin2-GFP and overexpressed V2R, 1 μM
# T1 construct: expressed in transfected cells; host or cells: U2OS cells
# Experimental: (§1) U20S cells expressing HA-GPR35a/βarr2-GFP (also known as UGPR35β cells) were plated in a 24-well plate onto coverslips that were coated with poly-D-lysine (0.02 mg/ml; Sigma-Aldrich, St. Louis, Mo., USA) for 1 hour. Cells were maintained at 37° C., 5% CO2 until ready for experiment (90% confluent). Cells were washed once with Hanks' balanced salt solution (HBSS, Cellgro, Mediatech, Inc, Manassas, Va., USA) comprising CaCl2 0.14 g/L, KCl 0.4 g/L, KH2PO4 0.06 g/L, MgSO4 0.097 g/L, NaCl 8 g/L, Na2HPO4 0.047 g/L, NaHCO3 0.35 g/L, and D-glucose 1.0 g/L. For receptor activation, agonist-evoked redistribution of βarr2-GFP was measured by applying the drug for 40 minutes. For measuring the effects of antagonist, agonist and antagonist were co-applied.
# (§2) Cells were then fixed with 4% paraformaldehyde for 20 minutes at room temperature, followed by three washes with HBSS.
# In that panel, fluorescence was observed close to the cell membrane. As a control for drug specificity, 1 μM pamoic acid was added to a U2OS cell line containing β-arrestin2-GFP and overexpressed vasopressin receptor (V2R).
# [2] = biological target: T2, CB1 cannabinoid receptors (Homo sapiens, UniProt P21554); assay: βarr2-GFP redistribution in U2OS cells co-expressing CB1 (specificity control); type: cell-based; details: U2OS cells co-expressing β-arr2-GFP and CB1, 1 μM; data not shown
# T2 construct: expressed in transfected cells; host or cells: U2OS cells
# [3] = biological target: T3, GPR55 receptors (Homo sapiens, UniProt Q9Y2T6); assay: βarr2-GFP redistribution in U2OS cells co-expressing GPR55 (specificity control); type: cell-based; details: U2OS cells co-expressing βarr2-GFP and GPR55, 1 μM; data not shown
# T3 construct: expressed in transfected cells; host or cells: U2OS cells
# [4] = Acetic acid writhing (abdominal constriction) test in mice; details: for mean number of writhes: male Swiss Webster mice, 0.6% acetic acid i.p., saline control 21±1
# [5] = Middle cerebral artery occlusion with reperfusion (MCAO/R) stroke model; type: in vivo; details: male mice
# Experimental: Several animal-based models for stroke have been proposed and validated, such as the artery occlusion and reperfusion model in male mice described by Zhang and coworkers (Microvasc. Res., 2009, 78(1):86-94). In this model, the animals are submitted to middle cerebral artery occlusion for a period of 60 minutes and then reperfusion is allowed. Cerebral infarction volume is measured by analyzing sections of the animal brain stained with triphenyltetrazolium chloride. Triphenyltetrazolium chloride is believed to be reduced to red formazan by mitochondrial enzymes, specifically succinate dehydrogenase (Lippold, 1982, Histochemistry 76:381-405). […] Therefore, TTC staining is extensively used in animal stroke experiments for quantitatively delineating the infarct volume (Memezawa et al., 1992, Exp. Brain Res. 89:67-78.; Hasegawa et al., 1995, J. Cereb. Blood Flow Metab. 15:179-187; Kuge et al., 1995, Stroke 26:1655-1658; Fuhai et al., 1997, J. Cereb. Blood Flow Metab. 17:1132-1135). […]
# Cerebral infarction volume was measured 24 hours after MCAO/R. The animals were euthanized with an overdose of pentobarbital (200 mg/kg i.p.) 24 hours after MCAO and the brains were removed, and chilled on ice for 10 min to slightly harden the tissue. […]
# [6] = biological target: GPR35a (Homo sapiens, UniProt Q9HC97, S294R); assay: β-arrestin2-GFP redistribution/aggregation in UGPR35β cells; type: cell-based; set-up: expressed in transfected cells; details: mean (95% confidence interval in brackets in the text), read-out: EC50 for β-arrestin2 aggregation
# Excerpt: This cellular assay utilizes the intracellular β-arrestin protein as a reporter of receptor activity. […] Upon agonist-mediated GPCR activation, β-arrestins rapidly redistribute en masse to ligand-activated plasma membrane receptors (on the other hand, β-arrestins remain in the cytosol upon antagonist binding to the receptor). Activated GPCR/β-arrestin complexes will concentrate in clathrin-coated pits and/or internal vesicles where most GPCRs normally undergo internalization. At this juncture, the β-arrestin either (i) dissociates and returns to the cytoplasm, or (ii) further redistributes with the receptor into an intracellular endosomal vesicle, depending on the receptor type. It is the agonist-induced redistribution of β-arrestin-GFP into progressively smaller compartments (cytosolic compartment>plasma membrane>coated pit>endosomal compartment) that enables imaging of receptor activation.
# This cell line is herein referred to as UGPR35β. Selected cells were maintained at 200 μg/ml G418® and 100 μg/ml Zeocin® at 37° C. and 5% CO2.
# as §1, §2
# βarr2-GFP aggregates were identified by a wavelet-based, Microsoft Windows-compatible computer program written in the MatLab programming environment. A program algorithm extracts from two dimensional images those pixels that generate objects of interest that fall within a predetermined range of sizes and intensities and that are embedded among widely varying local backgrounds (L. Barak, available from the Duke University GPCR Assay Bank). Concentration-effect curves for agonist-mediated receptor activation were analyzed by non-linear regression techniques using GraphPad Prism 4.0 software (GraphPad) and data were fitted to sigmoidal dose-response curves to obtain EC50 or IC50 values. Statistical analysis was performed using one-way analysis of variance (ANOVA) followed by Dunnett's post-test or two-tailed unpaired student t test. P values of <0.05 are considered significant.
# A prototypical U2OS osteosarcoma cell line that permanently expresses β-arrestin-GFP and N-terminal triple HA-tagged human GPR35a was used to screen ligands for agonism or antagonism against the GPR35 receptor. […] Endogenous receptors are invisible to the assay because there are too few endogenous receptors of any type compared to the number of β-arrestin molecules in the cell to provide a measurable response.
# Upon agonist-mediated GPCR activation, β-arrestins rapidly redistribute en masse to ligand-activated plasma membrane receptors, and then the activated GPCR/arrestin complexes concentrate in clathrincoated pits and/or internal vesicles.
# Concentration response curves for β-arrestin2 aggregation were obtained for compounds of interest. For this study, UGPR35β cells were treated with different concentrations of a compound of interest and images of the cells (acquired in triplicate in three or more independent experiments) were analyzed for fluorescence.
# [7] = biological target: T4, mouse GPR35 (Mus musculus, UniProt Q9ES90); details: CHO cells co-transfected with mouse GPR35, Aequorin readout; Wang et al. 2006; read-out: EC50 for receptor activation; cited from earlier work
# T4 construct: host or cells: CHO cells
# [8] = biological target: T5, human GPR35 (Homo sapiens, UniProt Q9HC97); details: CHO cells co-transfected with human GPR35, Aequorin readout; Wang et al. 2006; read-out: EC50 for receptor activation; cited from earlier work
# T5 construct: host or cells: CHO cells
# [9] = biological target: T6, rat GPR35 (Rattus norvegicus, UniProt Q33BM1); details: CHO cells co-transfected with rat GPR35, Aequorin readout; Wang et al. 2006; read-out: EC50 for receptor activation; cited from earlier work
# T6 construct: host or cells: CHO cells
# [10] = biological target: GPR35 (Homo sapiens, UniProt Q9HC97, S294R); assay: cell-based
# GPR35, sequence (Q9HC97 whole entry S294R): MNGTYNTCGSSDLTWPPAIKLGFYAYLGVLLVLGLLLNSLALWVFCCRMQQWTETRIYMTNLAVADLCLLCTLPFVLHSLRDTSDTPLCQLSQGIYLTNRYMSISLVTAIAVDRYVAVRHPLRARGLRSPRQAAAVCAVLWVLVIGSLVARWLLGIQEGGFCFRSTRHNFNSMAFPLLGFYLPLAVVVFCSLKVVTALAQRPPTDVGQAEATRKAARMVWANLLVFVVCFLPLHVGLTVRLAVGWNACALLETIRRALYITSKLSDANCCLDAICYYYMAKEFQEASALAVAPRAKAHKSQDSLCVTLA
# Experimental: Loss of cell surface receptor may be evaluated by methods such as On-Cell Western analysis of the cells under treatment.
# In a non-limiting example, a cell line that expresses N-terminal triple HA-tagged GPR35 receptor is used. After contacting the cells with a candidate GPR35 agonist and incubating the system for a set period of time, the cells are incubated with an anti-HA mouse antibody, followed by incubation with a fluorophore-labeled anti-mouse antibody. The resulting observed fluorescence is then used to assess the level of GPR35 receptor on the cell surface.
# The previously described U2OS cells expressing HA-GPR35a/βarr2-GFP (also known as UGPR35β cells) were seeded and grown until confluence on the bottoms of a 96-well plate. […] Cells were washed once with Hanks' balanced salt solution (HBSS, Cellgro, Mediatech, Inc, Manassas, Va., USA) prior to appropriate drug treatment and then fixed with 4% formaldehyde for 20 minutes at room temperature. This step was followed by three washes with PBS for 5 minutes each.
# The secondary antibody (IRDye 800 conjugated anti-mouse IgG, Rockland, Gilbertsville, Pa.; 1:1000 in LI-COR Odyssey® blocking buffer) was then added to the treated cells and incubated for 1 hour at room temperature protected from light.
# Cells grown on coverslips were incubated over ice for 40 minutes with a 1:500 dilution of mouse monoclonal anti-HA antibody in blocking buffer (3% BSA in PBS), followed by three consecutive washes with PBS. […] Antibody-labeled cells were treated with agonist alone or in combination with antagonist for 40 minutes at 37° C., and the cells were then imaged.
# On-Cell western analysis was performed using a LI-COR odyssey infra-red imager to quantify ligand potency to induce loss of cell surface receptor.
# For each concentration of the compound of interest, the intensity of labeling was measured using immunofluorescence. The readings were plotted against the compound concentrations, yielding binding curves that allowed the calculation of EC50 values (FIGS. 6C-E).
# T3 sequence (Q9Y2T6 whole entry): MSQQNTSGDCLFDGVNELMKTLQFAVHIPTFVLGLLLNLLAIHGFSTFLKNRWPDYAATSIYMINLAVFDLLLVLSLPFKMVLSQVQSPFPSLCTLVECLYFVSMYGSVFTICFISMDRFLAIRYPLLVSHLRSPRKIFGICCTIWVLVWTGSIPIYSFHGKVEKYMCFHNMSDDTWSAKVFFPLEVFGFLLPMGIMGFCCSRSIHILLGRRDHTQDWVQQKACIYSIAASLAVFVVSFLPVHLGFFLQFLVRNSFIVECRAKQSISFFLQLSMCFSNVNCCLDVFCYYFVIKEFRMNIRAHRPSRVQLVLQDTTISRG
# GPR35a, sequence (Q9HC97 whole entry S294R): as the sequence (Q9HC97 whole entry S294R) above
# T6 sequence (Q33BM1 1-306): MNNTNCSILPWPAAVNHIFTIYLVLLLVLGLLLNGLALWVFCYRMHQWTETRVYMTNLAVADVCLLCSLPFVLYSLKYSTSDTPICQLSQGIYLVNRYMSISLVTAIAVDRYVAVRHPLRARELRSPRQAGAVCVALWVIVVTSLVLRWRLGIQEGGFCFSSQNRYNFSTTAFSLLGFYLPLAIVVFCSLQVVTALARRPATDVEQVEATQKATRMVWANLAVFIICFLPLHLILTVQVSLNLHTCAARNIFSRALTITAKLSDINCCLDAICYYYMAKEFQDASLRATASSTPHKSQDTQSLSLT
# T1 sequence (P30518 whole entry, species assumed): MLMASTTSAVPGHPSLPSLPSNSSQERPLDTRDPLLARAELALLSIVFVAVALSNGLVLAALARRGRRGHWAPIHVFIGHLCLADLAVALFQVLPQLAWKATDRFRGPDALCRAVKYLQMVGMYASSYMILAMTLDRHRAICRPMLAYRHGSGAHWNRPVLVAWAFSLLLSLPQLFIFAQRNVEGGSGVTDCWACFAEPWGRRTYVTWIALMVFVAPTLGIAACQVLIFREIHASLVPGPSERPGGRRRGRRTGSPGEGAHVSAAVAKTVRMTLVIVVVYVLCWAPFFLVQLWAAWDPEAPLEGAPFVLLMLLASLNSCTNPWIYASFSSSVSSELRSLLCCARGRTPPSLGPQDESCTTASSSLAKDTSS
# T2 sequence (P21554 whole entry): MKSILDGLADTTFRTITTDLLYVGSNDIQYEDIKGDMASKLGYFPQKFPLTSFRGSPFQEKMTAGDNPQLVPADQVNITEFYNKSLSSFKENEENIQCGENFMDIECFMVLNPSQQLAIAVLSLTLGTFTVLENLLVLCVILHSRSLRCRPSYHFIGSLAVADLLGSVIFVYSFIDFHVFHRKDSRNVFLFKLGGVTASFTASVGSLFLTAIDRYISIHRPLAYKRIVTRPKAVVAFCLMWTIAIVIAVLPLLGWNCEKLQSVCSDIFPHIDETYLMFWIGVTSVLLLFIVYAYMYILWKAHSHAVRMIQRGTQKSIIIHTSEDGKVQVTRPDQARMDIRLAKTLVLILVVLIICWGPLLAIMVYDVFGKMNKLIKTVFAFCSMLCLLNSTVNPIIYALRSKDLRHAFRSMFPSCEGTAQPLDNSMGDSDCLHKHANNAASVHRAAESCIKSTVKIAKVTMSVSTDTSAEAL
# T4 sequence (Q9ES90 whole entry): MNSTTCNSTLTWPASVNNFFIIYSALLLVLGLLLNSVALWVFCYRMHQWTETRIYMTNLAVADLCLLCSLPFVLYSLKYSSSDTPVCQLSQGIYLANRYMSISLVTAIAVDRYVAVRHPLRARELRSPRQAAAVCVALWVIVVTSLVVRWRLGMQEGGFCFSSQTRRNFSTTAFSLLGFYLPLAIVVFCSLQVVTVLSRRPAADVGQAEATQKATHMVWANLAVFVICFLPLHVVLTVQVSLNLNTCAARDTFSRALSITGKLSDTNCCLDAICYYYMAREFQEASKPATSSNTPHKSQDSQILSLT
# T5 sequence (Q9HC97 whole entry): as the sequence (Q9HC97 whole entry S294R) above, with R294S counted along it
smiles,measurement,setting,value
"O=C(O)c1cc2ccccc2c(Cc2c(O)c(C(=O)O)cc3ccccc23)c1O [Compound 1, 4-[(3-carboxy-2-hydroxynaphthalen-1-yl)methyl]-3-hydroxynaphthalene-2-carboxylic acid]",change in β-arrestin2-GFP fluorescence distribution,[1],no change in fluorescence distribution was observed
same,βarr2-GFP response,[2],no response was observed
same,βarr2-GFP response,[3],no response was observed
same,"antinociceptive effect, in words","[4]; mice, s.c., dose of 100 mg/kg",essentially complete antinociception
same,subcutaneous dose causing 50% antinociception,"[4]; mice, s.c., given as disodium pamoate, 95% CL 28.3-90.3 mg/kg",40.5 mg/kg
O=C(O)c1cc2ccccc2c(Cc2c(O)c(C(=O)O)cc3ccccc23)c1O [disodium pamoate],mean number of writhes,[4]; 25 mg/kg s.c.,14±2
same,mean number of writhes,[4]; 50 mg/kg s.c.,11±2
same,mean number of writhes,[4]; 100 mg/kg s.c.,0.4±0.2
same,infarction percentage,"[5]; given one hour prior to reperfusion, measured 24 hours after MCAO/R, control about 27%",about 17%
same,reduction in infarction percentage,[5]; versus untreated control,about 37%
"O=C(O)c1cc(=O)c2ccccc2[nH]1 [kynurenic acid, 2-carboxy-4-hydroxy-quinoline]",EC50,[6],217 µM
same,EC50,[7],11 µM
same,EC50,[8],40 µM
same,EC50,[9],7 µM
CN1CCCN=C1/C=C/c1cccs1 [pyrantel pamoate],EC50,[10],0.0887 µM
